Measured values from patent US8048903B2, “5-iodotetrazoles” (LANXESS Deutschland GmbH, priority 2004, dated 2011).
Converted amounts (≈) assume the structure as drawn.

Tests used:
Penicillium brevicaule = assay: Minimum inhibitory concentration (MIC) against fungi on malt extract agar; type: cell-based; conditions: 336 h, 2 weeks at 28° C., 60 to 70% relative atmospheric humidity, read-out: Minimum inhibitory concentrations Penicillium brevicaule
Description: (§1) In each case, the active compounds according to the invention, in concentrations of from 0.1 mg/l to 5000 mg/l, were added to an agar which had been prepared using malt extracts. The MIC was determined after 2 weeks of storage at 28° C. and 60 to 70% relative atmospheric humidity. The MIC is the lowest concentration of active compound at which there is no colonization by the microbial species used.

Aspergillus niger = assay: as above; type: cell-based; conditions: 336 h, 2 weeks at 28° C., 60 to 70% relative atmospheric humidity, read-out: Minimum inhibitory concentrations Aspergillus niger
Description: as §1

Chaetomium globosum = assay: as above; type: cell-based; conditions: 336 h, 2 weeks at 28° C., 60 to 70% relative atmospheric humidity, read-out: Minimum inhibitory concentrations Chaetomium globosum
Description: as §1

[1] = system: mold fungi (Alternaria tenuis, Aspergillus flavus, Aspergillus niger, Aspergillus ustus, Cindosporum herbarum, Paecilomyces variotii, Penicillium citrium …); assay: Test of dispersion coatings for resistance to mold; type: cell-based; conditions: coatings according to recipe A containing 1.0% (based on solids) of compound; even after rinsing out and wind tunnel exposure; 2-3 weeks, 29±1° C., 80-90% rel. humidity
Description: To test dispersion coatings for resistance to mold, the following procedure was adopted:
The paint to be tested was applied to both sides of a suitable base. To obtain results which are close to practice, some of the test specimens were rinsed out with running water (24 h, 20° C.) before the test for mold resistance; others were treated with a current of warm fresh air (7 days, 40° C.).
The samples prepared in this way were then placed on an agar nutrient medium, and both samples and nutrient medium were contaminated with fungal spores. After 2-3 weeks storage (29±1° C., 80-90% rel. atmospheric humidity), the samples were compared.
The coating is considered to be permanently mold-resistant if the sample remains free from fungus or at most a slight border infestation can be detected.
For the contamination, fungal spores of the following mold fungi were used, which are known as paint destroyers or are frequently encountered on coatings: […]

| Compound | MIC (Penicillium brevicaule) [µg/mL] | MIC (Aspergillus niger) [µg/mL] | MIC (Chaetomium globosum) [µg/mL] | melting point [°C] | Mold resistance of coating [1] |
| --- | --- | --- | --- | --- | --- |
| Ic1nnnn1-c1ccccc1 [Example 2, 5-Iodo-1-phenyltetrazole] | < 40 | < 40 | < 40 | 123 to 129 | mold resistant |
| CCCCn1nnnc1I [Example 1, 5-Iodo-1-butyltetrazole] | < 1 | 5 (≈ 19.8 µM) | 5 (≈ 19.8 µM) | 31 to 37 |  |
